Test results reported in PMC7265429, “Characterization of a new small-molecule inhibitor of HDAC6 in glioblastoma” (Cell Death & Disease, 2020).

Columns and labels:
U251-MG cells = assay: Dose-response MTT cell viability assay, U251-MG; format: cell-based; conditions: Homo sapiens, U-251, 72 h, Fig. 2d
Description: (§1) Glioma-cell lines were seeded at a density of 1.5 × 10^3 cells/well in 96-well plates, with six replicates per condition. […] Cell viability was determined by MTT assay at 72 h after treatment. For this, MTT (3-(4,5-dimethyl-2-thiazolyl)-2,5-diphenyl-2H-tetrazolium bromide) reagent was added and, after a 3 h incubation at 37 °C and 5% CO2, media was removed and the formed crystals were resuspended in DMSO. Plates were measured at 570 nm using a spectrophotometer. Results were analyzed by GraphPad Prism software and IC50 values were calculated.

U373-MG cells = assay: Dose-response MTT cell viability assay, U373-MG; format: cell-based; conditions: Homo sapiens, 72 h, Fig. 2d
Description: as §1

U87-MG cells [1] = assay: Dose-response MTT cell viability assay, U87-MG; format: cell-based; conditions: Homo sapiens, U-87 MG, 72 h, Fig. 2d
Description: as §1

A172 cells = assay: Dose-response MTT cell viability assay, A172; format: cell-based; conditions: Homo sapiens, A 172, 72 h, Fig. 2d
Description: as §1

[2] = test system: patient-derived GNS166 stem cells; assay: Dose-response MTT cell viability assay, GNS166; format: cell-based; conditions: Homo sapiens, 72 h, Fig. 2d
Description: as §1

T98-G cells = assay: Dose-response MTT cell viability assay, T98-G; format: cell-based; conditions: Homo sapiens, T98G, 72 h, Fig. 2d
Description: as §1

[3] = test system: acetyl-α-tubulin (HDAC6 main target) in U251-MG cells; assay: Western blot of acetyl-α-tubulin and cleaved PARP in U251-MG; format: cell-based, human; conditions: 10 nM, 48 h
Description: Immunoblots were performed following standard procedures. […] Detection was performed by chemiluminiscence using NOVEX ECL Chemi Substrate (ThermoFisher).

[4] = test system: patient-derived GNS179 stem cells; assay: Dose-response MTT cell viability assay, GNS179; format: cell-based; conditions: Homo sapiens, 72 h, Fig. 2d
Description: as §1

U87-MG cells [5] = assay: Cell viability in combined treatments with TMZ; format: cell-based; conditions: Homo sapiens, U-87 MG, 100 μM TMZ, 72 h, read-out: cell viability, TMZ alone
Description: as §1

IC50 (U251-MG cells) [µM]	IC50 (U87-MG cells [1]) [µM]	SMILES	IC50 (U373-MG cells) [µM]	IC50 (A172 cells) [µM]	IC50 [2] [µM]	IC50 (T98-G cells) [µM]	α-tubulin hyperacetylation [3]	IC50 [4] [µM]	viability at 100 µM (U87-MG cells [5]) [%]
26.3	23.7	CN1CCc2c(c3ccccc3n2Cc2ccc(C(=O)NO)cc2)C1 [Tubastatin A]	13.2	52.5	26.4	104	did not	175	–
–	–	Cn1nnc2c(C(N)=O)ncn2c1=O [TMZ, temozolomide]	–	–	–	–	–	–	85
